In the supplement of paper PMC10307832:

Tests used:
Test in all cases: relative viability (nuclei count vs DMSO), 5 days (fraction); higher = more cells survive
[1] = compound: Cc1ccc(Nc2nccc(N(C)c3ccc4c(C)n(C)nc4c3)n2)cc1S(N)(=O)=O [Pazopanib] + COc1cccc2cc(-c3nc([C@H]4CC[C@H](C(=O)O)CC4)n4ncnc(N)c34)[nH]c12 [OSI-027] (partner 0.5 µM)
Outline: (§1)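 A single step with final 0.05% Triton X-100, 1% formaldehyde and 1 ug/ml Hoechst fixed the cells and stained nuclei 5 days after treatment. Lung cancer cell lines in 1536-well plates had been treated by pin tool the day after seeding with one drug alone or a fixed anchor-drug dose plus five library-drug doses (not always all listed) in √10 steps, and nuclei were counted on 4× images. Relative viability is the ratio of nuclei in treated wells to nuclei in vehicle wells, taken as the median of duplicate plates.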

[2] = compound: Cc1ccc(C(=O)Nc2ccc(CN3CCN(C)CC3)c(C(F)(F)F)c2)cc1C#Cc1cnc2cccnn12 [Ponatinib] + CS(=O)(=O)N1CCN(Cc2cc3nc(-c4cccc5[nH]ncc45)nc(N4CCOCC4)c3s2)CC1 [Pictilisib] (partner 1 µM)
Outline: as §1

[3] = compound: Cc1ccc(C(=O)Nc2ccc(CN3CCN(C)CC3)c(C(F)(F)F)c2)cc1C#Cc1cnc2cccnn12 [Ponatinib] + CCNC(=O)c1noc(-c2cc(C(C)C)c(O)cc2O)c1-c1ccc(CN2CCOCC2)cc1 [Luminespib] (partner 0.01 µM)
Outline: as §1

[4] = compound: Cc1ccc(Nc2nccc(N(C)c3ccc4c(C)n(C)nc4c3)n2)cc1S(N)(=O)=O [Pazopanib] + NC(=O)Nc1cc(-c2cccc(F)c2)sc1C(=O)N[C@H]1CCCNC1 [AZD7762] (partner 0.2 µM)
Outline: as §1

Cell Line A-427 has a relative viability ([1]; first compound 0.01 µM) of 0.512, a relative viability ([1]; first compound 0.03162 µM) of 0.481 and a relative viability ([1]; first compound 0.1 µM) of 0.462. For the same cell line, the relative viability ([1]; first compound 0.3162 µM) was 0.516, the relative viability ([1]; first compound 1 µM) was 0.448 and the relative viability ([2]; first compound 0.002 µM) was 0.691. The relative viability ([2]; first compound 0.006325 µM) was 0.756, the relative viability ([2]; first compound 0.06325 µM) was 0.529 and the relative viability ([2]; first compound 0.2 µM) was 0.531. For the same cell line, the relative viability ([3]; first compound 0.002 µM) was 0.908, the relative viability ([3]; first compound 0.006325 µM) was 0.799 and the relative viability ([3]; first compound 0.06325 µM) was 1.08. It also gave a relative viability ([3]; first compound 0.2 µM) of 0.75, a relative viability ([4]; first compound 0.01 µM) of 0.864 and a relative viability ([4]; first compound 0.03162 µM) of 0.786. It also gave a relative viability ([4]; first compound 0.1 µM) of 0.825, a relative viability ([4]; first compound 0.3162 µM) of 0.784 and a relative viability ([4]; first compound 1 µM) of 0.716.
For ABC-1, the relative viability ([1]; first compound 0.01 µM) was 0.367, the relative viability ([1]; first compound 0.03162 µM) was 0.572 and the relative viability ([1]; first compound 0.3162 µM) was 0.668. The relative viability ([1]; first compound 1 µM) was 0.579, the relative viability ([2]; first compound 0.002 µM) was 0.826 and the relative viability ([2]; first compound 0.006325 µM) was 0.78. It also gave a relative viability ([2]; first compound 0.06325 µM) of 0.884, a relative viability ([2]; first compound 0.2 µM) of 0.658 and a relative viability ([3]; first compound 0.002 µM) of 0.558. The relative viability ([3]; first compound 0.006325 µM) was 0.42, the relative viability ([3]; first compound 0.06325 µM) was 0.745 and the relative viability ([3]; first compound 0.2 µM) was 0.239. It also gave a relative viability ([4]; first compound 0.01 µM) of 0.797, a relative viability ([4]; first compound 0.03162 µM) of 0.757 and a relative viability ([4]; first compound 1 µM) of 0.804.
With BEN the relative viability ([1]; first compound 0.03162 µM) was 0.348, the relative viability ([1]; first compound 0.1 µM) was 0.314 and the relative viability ([1]; first compound 0.3162 µM) was 0.287. For the same cell line, the relative viability ([1]; first compound 1 µM) was 0.314, the relative viability ([2]; first compound 0.002 µM) was 0.544 and the relative viability ([2]; first compound 0.006325 µM) was 0.62. For the same cell line, the relative viability ([2]; first compound 0.06325 µM) was 0.601, the relative viability ([2]; first compound 0.2 µM) was 0.462 and the relative viability ([3]; first compound 0.002 µM) was 0.259. For the same cell line, the relative viability ([3]; first compound 0.006325 µM) was 0.296, the relative viability ([3]; first compound 0.06325 µM) was 0.24 and the relative viability ([3]; first compound 0.2 µM) was 0.576. The relative viability ([4]; first compound 0.01 µM) was 0.592, the relative viability ([4]; first compound 0.03162 µM) was 0.75 and the relative viability ([4]; first compound 0.1 µM) was 0.607. For the same cell line, the relative viability ([4]; first compound 0.3162 µM) was 0.775 and the relative viability ([4]; first compound 1 µM) was 0.786.
With CAL-12T the relative viability ([1]; first compound 0.01 µM) was 0.473, the relative viability ([1]; first compound 0.03162 µM) was 0.943 and the relative viability ([1]; first compound 0.1 µM) was 0.609. It also gave a relative viability ([1]; first compound 0.3162 µM) of 0.591, a relative viability ([1]; first compound 1 µM) of 0.684 and a relative viability ([2]; first compound 0.002 µM) of 0.425. It also gave a relative viability ([2]; first compound 0.006325 µM) of 0.464, a relative viability ([2]; first compound 0.06325 µM) of 0.515 and a relative viability ([2]; first compound 0.2 µM) of 0.432. The relative viability ([3]; first compound 0.002 µM) was 0.37, the relative viability ([3]; first compound 0.006325 µM) was 0.505 and the relative viability ([3]; first compound 0.06325 µM) was 0.436. It also gave a relative viability ([3]; first compound 0.2 µM) of 0.447, a relative viability ([4]; first compound 0.01 µM) of 0.594 and a relative viability ([4]; first compound 0.03162 µM) of 0.579. It also gave a relative viability ([4]; first compound 0.1 µM) of 0.527, a relative viability ([4]; first compound 0.3162 µM) of 0.568 and a relative viability ([4]; first compound 1 µM) of 0.652.
Cell Line ChaGo-K-1 has a relative viability ([1]; first compound 0.01 µM) of 0.528, a relative viability ([1]; first compound 0.03162 µM) of 0.504 and a relative viability ([1]; first compound 0.1 µM) of 0.541. For the same cell line, the relative viability ([1]; first compound 0.3162 µM) was 0.498, the relative viability ([1]; first compound 1 µM) was 0.581 and the relative viability ([2]; first compound 0.002 µM) was 0.59. The relative viability ([2]; first compound 0.006325 µM) was 0.917, the relative viability ([2]; first compound 0.06325 µM) was 0.879 and the relative viability ([2]; first compound 0.2 µM) was 0.644. For the same cell line, the relative viability ([3]; first compound 0.002 µM) was 0.562, the relative viability ([3]; first compound 0.006325 µM) was 0.651 and the relative viability ([3]; first compound 0.06325 µM) was 0.571. It also gave a relative viability ([3]; first compound 0.2 µM) of 0.553, a relative viability ([4]; first compound 0.01 µM) of 0.859 and a relative viability ([4]; first compound 0.03162 µM) of 0.859. The relative viability ([4]; first compound 0.1 µM) was 0.971, the relative viability ([4]; first compound 0.3162 µM) was 0.82 and the relative viability ([4]; first compound 1 µM) was 0.865.
For EKVX, the relative viability ([1]; first compound 0.01 µM) was 0.664, the relative viability ([1]; first compound 0.03162 µM) was 0.741 and the relative viability ([1]; first compound 0.1 µM) was 0.642. The relative viability ([1]; first compound 0.3162 µM) was 0.691, the relative viability ([1]; first compound 1 µM) was 0.788 and the relative viability ([2]; first compound 0.002 µM) was 0.534. The relative viability ([2]; first compound 0.006325 µM) was 0.5, the relative viability ([2]; first compound 0.06325 µM) was 0.625 and the relative viability ([2]; first compound 0.2 µM) was 0.488. For the same cell line, the relative viability ([3]; first compound 0.002 µM) was 0.941, the relative viability ([3]; first compound 0.006325 µM) was 0.959 and the relative viability ([3]; first compound 0.06325 µM) was 0.954. For the same cell line, the relative viability ([3]; first compound 0.2 µM) was 0.871, the relative viability ([4]; first compound 0.01 µM) was 0.705 and the relative viability ([4]; first compound 0.03162 µM) was 0.599. It also gave a relative viability ([4]; first compound 0.1 µM) of 0.755, a relative viability ([4]; first compound 0.3162 µM) of 0.654 and a relative viability ([4]; first compound 1 µM) of 0.636.
EMC-BAC-2 gave a relative viability ([1]; first compound 0.03162 µM) of 0.424, a relative viability ([1]; first compound 0.1 µM) of 0.394 and a relative viability ([1]; first compound 0.3162 µM) of 0.404. It also gave a relative viability ([1]; first compound 1 µM) of 0.399, a relative viability ([2]; first compound 0.002 µM) of 0.549 and a relative viability ([2]; first compound 0.006325 µM) of 0.537. The relative viability ([2]; first compound 0.06325 µM) was 0.684, the relative viability ([2]; first compound 0.2 µM) was 0.527 and the relative viability ([3]; first compound 0.002 µM) was 1.06. For the same cell line, the relative viability ([3]; first compound 0.006325 µM) was 1.15, the relative viability ([3]; first compound 0.06325 µM) was 1.28 and the relative viability ([3]; first compound 0.2 µM) was 1.07. The relative viability ([4]; first compound 0.03162 µM) was 1.14, the relative viability ([4]; first compound 0.1 µM) was 1.09 and the relative viability ([4]; first compound 0.3162 µM) was 1.14. For the same cell line, the relative viability ([4]; first compound 1 µM) was 1.2.
EPLC-272H was tested, and the relative viability ([1]; first compound 0.03162 µM) was 0.253, the relative viability ([1]; first compound 0.1 µM) was 0.337 and the relative viability ([1]; first compound 0.3162 µM) was 0.336. For the same cell line, the relative viability ([1]; first compound 1 µM) was 0.277, the relative viability ([2]; first compound 0.002 µM) was 0.29 and the relative viability ([2]; first compound 0.006325 µM) was 0.373. The relative viability ([2]; first compound 0.06325 µM) was 0.342, the relative viability ([2]; first compound 0.2 µM) was 0.335 and the relative viability ([3]; first compound 0.002 µM) was 0.323. For the same cell line, the relative viability ([3]; first compound 0.006325 µM) was 0.255, the relative viability ([3]; first compound 0.06325 µM) was 0.521 and the relative viability ([3]; first compound 0.2 µM) was 0.199. The relative viability ([4]; first compound 0.03162 µM) was 0.227, the relative viability ([4]; first compound 0.1 µM) was 0.238 and the relative viability ([4]; first compound 0.3162 µM) was 0.132. For the same cell line, the relative viability ([4]; first compound 1 µM) was 0.217.
